System: HeLa cells
Test: SERS detection and quantification of sialic acid on single living HeLa cells with DBA tag (HC-PCF)
Type: cell-based
Protocol: HeLa cells were cultured in Dulbecco's modified eagle medium (DMEM) with 1% penicillin streptomycin (Gibco) and 10% fetal bovine serum (Gibco) in the dark with 5% CO2 and 37° C. until they were confluent. The cells were then harvested by adding 1×EDTA trypsin of appropriate volume for 4 min, followed by addition of DMEM of double that volume to neutralize the trypsin. The harvested cells were centrifuged at 1,500 rpm for 3 mins. The supernatant was removed and the cells were suspended with DMEM to achieve a cell concentration of 5000 cells/ml. Two milliliter of cell suspension was seeded per well in a six-well plate and allowed to grow for 48 hours.
After incubation, DMEM was removed from each well and the adhered cells were rinsed lightly with 1×PBS which was subsequently removed. Four wells were used in our experiment. In order to reduce the probability of DBA binding onto sites of sialic acid on the surface of the cell membrane, thus mimicking a cell with lowered sialic acid level, 10 mM of phenyl-boronic acid (PBA) (Sigma Aldrich) dissolved in DMEM and 1% DMSO (Merck Millipore) were added to one well (Well A) and left to incubate for 24 hours. […]
Post-incubation washing was performed for all the wells and 10 mM of DBA (Sigma Aldrich) dissolved in DMEM and 1% DMSO was added into wells A, B and C, with incubation time of 4 hours. […] Supernatant were removed after centrifugation and the cells are ready for SERS sample preparation. […]
SERS spectra were recorded using a Raman microscope system (Renishaw InVia) with a 633 nm excitation laser and equipped with a grating (spectral resolution of about 1.8 cm^−1). […]
In order to calculate the amount of sialic acid on cell for Sialic acid and (+)Sialic acid samples, intensity of the 2,000 cm^−1 peak was obtained from the SERS measurement (FIG. 10A). […] The number of sialic acid molecules may be quantified by estimating the amount of DBA molecules from the trend line as the binding between DBA molecule to the sialic acid molecule is one by one. […]

Row | SMILES | calculated sialic acid amount on a single HeLa cell (5 μM prednisolone 72 hours, then 10 mM DBA 4 hours, estimated from DBA calibration curve of 2,000 cm^-1 peak) | intensity at 2,000 cm^-1 (DBA alkyne peak, sialic acid expression) versus positive control (HeLa cells, 5 μM prednisolone 72 hours, then DBA) | 2,000 cm^-1 peak in Raman spectrum (DBA binding to sialic acid) after pre-treatment (HeLa cells, 10 mM PBA 24 hours, then 10 mM DBA 4 hours)
1 | C[C@]12C=CC(=O)C=C1CC[C@@H]1[C@@H]2[C@@H](O)C[C@@]2(C)[C@H]1CC[C@]2(O)C(=O)CO [prednisolone] | 6.782 fmol | higher than that of the positive control | 
2 | OB(O)c1ccccc1 [PBA, phenyl-boronic acid] |  |  | negligible presence of that peak
